One series concerns mice (strain 129SV). Briefly: In vivo bioluminescence imaging of PpLuc expression after i.v. injection of LNP-formulated PpLuc mRNA with or without oligonucleotide. Also noted: species or system mouse. As to conditions: 24 hours post single i.v. injection, 10 μg or 30 μg of mRNA (either dose), oligo 20% or 6.7% mass, compared to PpLuc mRNA without Gm18 (FIG. 2). As to the method: For preparation of Lipid nanoparticles (LNP) containing both PpLuc mRNA and 2-O-methylated oligonucleotide, first the 2′-O-methylated oligonucleotide was added to PpLuc mRNA at a weight percentage of either 20% or 6.7% (see Table 3). LNP containing PpLuc mRNA either with or without admixture of 2-O-methylated oligonucleotide were prepared using cationic lipid, cholesterol, PEG-lipid and a neutral lipid. The mRNA was diluted to 1 g/L in citrate buffer, pH 4. The ethanolic lipid solution was mixed with the aqueous RNA solution at a ratio of 1:3 (vol/vol) using a Nanoassemblr (PrecisionNanoSystems). The ethanol was then removed and the buffer replaced by 10 mM HEPES, pH 7.4 comprising 9% Sucrose by dialysis. Finally, the LNP-formulated RNA was adjusted to 0.2 g/L. For in vivo experiments, 8 weeks old female mice (around 25 g, strain 129SV) were injected with the various LNP formulations (see tables 4 and 5). 4 animals were used per group. 10 μg or 30 μg of mRNA formulated with or without 2′-O-methylated oligonucleotide were intravenously injected at a concentration of 0.2 g/l. Bioluminescence imaging was performed 6 hours and 24 hours post LNP injection. […] PpLuc expression was quantified from bioluminescence images recorded for 3 minutes starting 5 minutes after i.v. injection of 3 mg of luciferin (see Table 5).

The subject of series [1] is human peripheral blood mononuclear cells (PBMCs). Put plainly: PBMC stimulation: DOTAP co-transfection of capped PpLuc mRNA with oligonucleotide, cytokines by CBA. The settings on record: DOTAP co-transfection with capped PpLuc mRNA 1 μg/ml, oligonucleotide 0.25 μg/ml (25% weight), supernatant 24 hours, compared to PpLuc mRNA only (FIG. 1B). The class given is cell-based. How it is done:
Human peripheral blood mononuclear cells (PBMCs) were isolated from heparinized blood of healthy volunteers by standard Ficoll-Hypaque density gradient centrifugation (Ficoll 1.078 g/ml). PBMCs were re-suspended in RPMI 1640 supplemented with 10% heat-inactivated FCS. After counting, cells are re-suspended at 50 million cells per ml in fetal calf serum, 10% DMSO, and frozen. Before usage, the cells are thawed.
For transfection experiments, 2×10^5 human PBMCs per well were seeded into each well of a 96-well plate in X-Vivo 15 medium (Lonza). For preparation of DOTAP complexes containing both immunostimulatory non-coding RNA and a 2′-O-methylated oligonucleotide (SEQ ID NO: 85), the oligonucleotide was first added to immunostimulatory non-coding RNA at a weight percentage of 25%. For preparation of DOTAP complexes containing both PpLuc mRNA and a 2′-O-methylated oligonucleotide, the oligonucleotide was first added to PpLuc mRNA at a weight percentage of 25%. The molar ratio of PpLuc mRNA to oligonucleotide was thus […] (MW (Oligonucleotide)=2907 g/mol, MW (PpLuc mRNA)=652377 g/mol). DOTAP complexes containing either immunostimulatory non-coding RNA or PpLuc mRNA without or with oligonucleotide were formed at a ratio of 3 μl of DOTAP per 1 μg of RNAdjuvant or 1 μg of mRNA. […] To quantify background stimulation, PBMC were incubated either with DOTAP alone (“vehicle”) or medium only. […]
In supernatants collected from PBMC stimulated without or with 2-O-methylated oligonucleotide, the concentrations of IFN-α, IFN-γ, TNF, were measured by Cytometric Bead Array (CBA) according to the manufacturer's instructions (BD Biosciences) using the following kits: Human Soluble Protein Master Buffer Kit (catalog no. 558264), Assay Diluent (catalog no. 560104), Human IFN-α Flex Set (catalog no. 560379), Human IFN-γ Flex Set (catalog no. 558269), Human TNF Flex Set (catalog no. 560112); all kits from BD Biosciences. The data was analyzed using the FCAP Array v3.0 software (BD Biosciences).

Regarding “5′-GAG CGmG CCA-3′ (GAGCNGCCA; 2'-O-methyl guanosine at position 5; 9mer oligonucleotide; modified_base (5)..(5) n can be any nucleotide, wherein the nucleotide is 2-O-methylated, preferably a 2-O-methylated guanosine) [Gm18, 9-mer 2′-O-methylated RNA oligonucleotide; position 5 is 2′-O-methylated guanosine (Gm); antagonist of TLR7 and 8]”, in the series on mice (strain 129SV), the “expression of PpLuc (bioluminescence imaging)” value is on record as “increases the expression”. Also, in series [1], the “secretion of cytokine INF-a” value is “reduced secretion”, the “secretion of cytokine INF-y” value is reported as “reduced secretion” and the “secretion of cytokine TNF” value is on record as “reduced secretion”.

Values taken from US20220296628A1, “RNA COMBINATIONS AND COMPOSITIONS WITH DECREASED IMMUNOSTIMULATORY PROPERTIES” (CureVac AG, priority 2019, published 2022).
